One assay relates to L929 cells. Description: TNF-induced programmed cell necrosis inhibition, Cell Titer-Glo viability. To be noted: Mus musculus, read-out: EC50 inhibitory activity on programmed cell necrosis. The format is cell-based, mouse. Put shortly:
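EC50 values come from CellTiter-Glo luminescence (cellular ATP), normalised to unstimulated DMSO wells as 100% viability. Mouse L929 fibroblasts had 1 h compound-plus-Smac pretreatment at 37 °C (Smac added as 500 nM solution), followed by 14 h TNFα challenge (added as 500 ng/mL solution).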
(In general: Cellular ATP, detected with luciferase, serves as a proxy for viable cell number.)

The next assay deals with RIPK1 (S161A). Nature of the assay: Effect of RIPK1 S161A mutation on compound activity (293T overexpression; S161A MEFs cell death with TNFα and 5z7). The class given is cell-based, murine. To be noted: FIG. 5. The text has this: The biological test protocol used in this experiment was to test the effect of mutation of serine at position 161 of RIPK1 to alanine on the activity of compound QY-1-98. The experiment was verified by two aspects. On the one hand, after RIPK1 was overexpressed in 293T cells, RIPK1 would be activated by autophosphorylation, and the activity of small molecules to inhibit the phosphorylation of RIPK1 was detected at this time. On the other hand, in murine-derived MEFs cells with RIPK1 knockout, and RIPK1 (S161A) put back, RIPK1-dependent cell apoptosis can be induced by using TNFα and 5z7 (TAK1 inhibitor), and the effect of the compound to inhibit cell death was detected at this time.
1. 293T cells overexpressing RIPK1 experiment: RIPK1 plasmid with N-terminal 3×FLAG was constructed on PcDNA vector. 293T cells were digested, and then diluted to 8×10^5/ml. 1 ml of cells were added to each well of a 12-well cell culture plate, and the plate was placed in a cell culture incubator (37° C., 5% CO2) for 12 hours before transfection. […] After cooling, the samples were detected by western-blot after electrophoresis on SDS-PAGE gel (9%). […] The plate was placed in cell incubator (37° C., 5% CO2) for 14 h, 15 μl of Cell Titer-Glo solution was added to each well, the mixture was incubated at room temperature for 30 min, and the luminescence value was detected to measure the level of intracellular ATP. […]

Read-outs that look alike come from different tables or passages of the source.

What is called EC50 is the midpoint of the concentration-response curve. Regarding `Cc1noc([C@@H]2CCCN2C(=O)C(C)(C)Oc2ccc(Cl)cc2)n1` [QY-1-98], the EC50 came out at 1290 nM in the assay with L929 cells (L929, 14 h, L929 cells (mouse), TNFa + SM164) and 213 nM in the assay with L929 cells (L929, L929 cells (mouse), TNFa). For the same compound, the “inhibition of programmed cell necrosis after mutation of serine 161 of RIPK1 to alanine” value with RIPK1 (S161A) is recorded as “can still inhibit the programmed cells necrosis”.

The values above are taken from US12662473B2, “Inhibitors for programmed cell necrosis and preparation method therefor and use thereof” (SHANGHAI INSTITUTE OF ORGANIC CHEMISTRY, CHINESE ACADEMY OF …, priority 2019, dated 2026).
